The values that follow come from paper PMC12040169 (PLOS Biology, 2025).

As usually defined, the viability is a read-out of living cells in per cent, often relative to untreated cells.

Data set [1] relates to T1, CTL2-GFP (C. trachomatis L2/434/Bu, GFP-expressing).
T1 construct: L2/434/Bu, GFP-expressing
In words: microbe, parasite or virus in culture. Further details: Intracellular C. trachomatis growth in HeLa cells, bulk GFP fluorescence relative to DMSO. The settings on record: Chlamydia trachomatis, HeLa, 28.5 h; bulk GFP, mean of 2; read-out: % of control remaining. The protocol:
MICs were calculated as described above.

A short description of data set [2]: in vitro. The arrangement: Viability of infected HeLa host cells, resazurin conversion, bulk resorufin fluorescence relative to DMSO. The settings on record: human, hela cells; bulk resorufin, mean of 2.
Data set [3] has as its system T2, C. trachomatis L2/434/Bu expressing GFP (CTL2-GFP).
T2 construct: L2/434/Bu GFP intracellular growth in HeLa cells
In words: microbe, parasite or virus in culture. The arrangement: C. trachomatis total inclusion area by high-content imaging, normalised to DMSO. The settings on record: Chlamydia trachomatis, HeLa, 28.5 h; total inclusion area; read-out: % of control remaining. In short, it runs like this: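 After bulk GFP and resorufin reads, fixed cells were Hoechst-stained and imaged to count chlamydial inclusions and host nuclei. Total inclusion area and number tracked bacterial growth, and nuclei number tracked host viability. MICs were derived, and 36,785 drug-like molecules were screened this way.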

Turning to `COC(=O)CCc1ccc(-c2cnc(N)c(-c3ccc(O)cc3)n2)cc1` [CBK122809], in data set [1], the activity at 1 µM amounted to 122%, the activity at 5 µM amounted to 108% and the activity at 10 µM amounted to 93.5%. Further, in data set [2], the viability at 28.5 h, 1 µM was 114%; the viability at 28.5 h, 5 µM was 118%; the viability at 28.5 h, 10 µM was determined as 113%. In addition, in data set [3], the activity at 1 µM is 92.1%, the activity at 5 µM was determined as 83.5% and the activity at 10 µM is 80.2%.

For `CN(C)CCNc1nc(-c2ccc(Cl)cc2)nc2ccccc12` [CBK263942], in data set [1], the activity at 1 µM amounted to 111%, the activity at 5 µM was 85.1% and the activity at 10 µM is 47.9%. Also, in data set [2], the viability at 28.5 h, 1 µM is 94.8%; the viability at 28.5 h, 5 µM is 97%; the viability at 28.5 h, 10 µM worked out at 94.4%. Further, in data set [3], the activity at 1 µM was determined as 64.3%, the activity at 5 µM was determined as 38.6% and the activity at 10 µM is 5.67%.

In the case of `CCc1nnc(NS(=O)(=O)c2ccc(N/C=C3\C(=O)N(c4ccc(Cl)cc4)N=C3C)cc2)s1` [CBK262416], in data set [1], the activity at 1 µM worked out at 91.1%, the activity at 5 µM came to 26.1% and the activity at 10 µM came to 13.2%. Besides, in data set [2], the viability at 28.5 h, 1 µM came to 91.9%; the viability at 28.5 h, 5 µM stood at 94.3%; the viability at 28.5 h, 10 µM came to 93.3%. Further, in data set [3], the activity at 1 µM amounted to 102%, the activity at 5 µM came to 50.5% and the activity at 10 µM was determined as 27%.

`O=C(NS(=O)(=O)c1cccc(-c2nnco2)c1)C1CC1C1CCCCC1` (stereo not drawn) [CBK305924]: in data set [1], the activity at 1 µM was 129%, the activity at 5 µM stood at 146% and the activity at 10 µM is 143%. In addition, in data set [2], the viability at 28.5 h, 1 µM came out at 91%; the viability at 28.5 h, 5 µM came out at 99.4%; the viability at 28.5 h, 10 µM stood at 94.7%. For the same molecule, in data set [3], the activity at 1 µM was found to be 120%, the activity at 5 µM was 151% and the activity at 10 µM is 119%.

For `O=C(NCCc1c[nH]c2ccc(Cl)cc12)c1ccc(Cl)cc1Br` [CBK159755], in data set [1], the activity at 1 µM is 100%, the activity at 5 µM turned out to be 71.3% and the activity at 10 µM came to 19.1%. In data set [2], the viability at 28.5 h, 1 µM is 89%; the viability at 28.5 h, 5 µM worked out at 88.9%; the viability at 28.5 h, 10 µM is 93.1%. Also, in data set [3], the activity at 1 µM is 91%, the activity at 5 µM is 79.9% and the activity at 10 µM was 32.4%.

As for `Fc1cc(CN2CCC3(CC2)OCCc2c3[nH]c3ccc(Br)cc23)cc(F)c1F` [CBK039943], in data set [1], the activity at 1 µM was 121%, the activity at 5 µM was found to be 66.6% and the activity at 10 µM is 46.8%. Further, in data set [2], the viability at 28.5 h, 1 µM worked out at 98.2%; the viability at 28.5 h, 5 µM is 92.1%; the viability at 28.5 h, 10 µM turned out to be 90.4%. In data set [3], the activity at 1 µM came to 102%, the activity at 5 µM turned out to be 32.3% and the activity at 10 µM came out at 21.4%.

On to `Cc1cc(C)c2nc(-c3ccccn3)cc(C(=O)Nc3ccc(S(=O)(=O)Nc4onc(C)c4C)cc3)c2c1` [CBK267775], for which, in data set [1], the activity at 1 µM amounted to 95.8%, the activity at 5 µM was determined as 105% and the activity at 10 µM amounted to 66.8%. In addition, in data set [2], the viability at 28.5 h, 1 µM came to 100%; the viability at 28.5 h, 5 µM was determined as 94.8%; the viability at 28.5 h, 10 µM was 98.6%. Also, in data set [3], the activity at 1 µM came out at 115%, the activity at 5 µM came out at 111% and the activity at 10 µM came to 74.8%.

In the case of `CC(=O)NC[C@H]1CN(c2ccc3c(c2)CCN(C(=O)Oc2ccccc2)CC3)C(=O)O1` [CBK018498], in data set [1], the activity at 1 µM was 125%, the activity at 5 µM was determined as 13.7% and the activity at 10 µM came out at 1.02%. For the same molecule, in data set [2], the viability at 28.5 h, 1 µM was 98.7%; the viability at 28.5 h, 5 µM came out at 94.2%; the viability at 28.5 h, 10 µM is 97.3%. Further, in data set [3], the activity at 1 µM is 72.8%, the activity at 5 µM was 12.5% and the activity at 10 µM turned out to be 3.33%.

Turning to `CN(C)CCCNC(=O)Nc1cccc(-c2nc(-c3ccc(C#N)cc3)cnc2N)c1` [CBK116287], in data set [1], the activity at 1 µM was found to be 102%, the activity at 5 µM was 71.8% and the activity at 10 µM came out at 14.2%. In data set [2], the viability at 28.5 h, 1 µM was determined as 104%; the viability at 28.5 h, 5 µM came to 89.1%; the viability at 28.5 h, 10 µM is 97.5%. In addition, in data set [3], the activity at 1 µM was found to be 116%, the activity at 5 µM came to 66.5% and the activity at 10 µM was 4.68%.

On to `CCOC(=O)c1c(C)n(-c2ccc(C)cc2)c2ccc(O)c(CN(C)C)c12` [CBK263499C], for which, in data set [1], the activity at 1 µM was found to be 124%, the activity at 5 µM is 104% and the activity at 10 µM was 38.4%. Besides, in data set [2], the viability at 28.5 h, 1 µM was found to be 101%; the viability at 28.5 h, 5 µM amounted to 93.4%; the viability at 28.5 h, 10 µM was found to be 90.3%. In data set [3], the activity at 1 µM was determined as 89%, the activity at 5 µM amounted to 95.9% and the activity at 10 µM amounted to 12.4%.

In the case of `Oc1ccccc1Nc1nc(NC2CCCC2)c2ccccc2n1` [CBK268402C], in data set [1], the activity at 1 µM was 120%, the activity at 5 µM came to 45.9% and the activity at 10 µM worked out at 9.92%. In data set [2], the viability at 28.5 h, 1 µM turned out to be 90.7%; the viability at 28.5 h, 5 µM worked out at 94.1%; the viability at 28.5 h, 10 µM was 104%. Moreover, in data set [3], the activity at 1 µM worked out at 43.4%, the activity at 5 µM stood at 23.2% and the activity at 10 µM turned out to be 4.48%.

With `CC(C)(C)c1ccc(N(C2CCNCC2)S(=O)(=O)c2cccc(C(F)(F)F)c2)cc1` [CBK165056T], in data set [1], the activity at 1 µM was found to be 103%, the activity at 5 µM was 77.9% and the activity at 10 µM amounted to 24.3%. In data set [2], the viability at 28.5 h, 1 µM was 99.8%; the viability at 28.5 h, 5 µM amounted to 107%; the viability at 28.5 h, 10 µM is 45.6%. Also, in data set [3], the activity at 1 µM was 78%, the activity at 5 µM stood at 50.5% and the activity at 10 µM was found to be 1%.

Regarding `Cc1cccc(-c2ccc(CC3(C(N)=O)CCN(C(=O)CCc4ccccc4)CC3)cc2)c1` [CBK285796], in data set [1], the activity at 1 µM was 133%, the activity at 5 µM was 4.53% and the activity at 10 µM came to 4.56%. Also, in data set [2], the viability at 28.5 h, 1 µM stood at 91.6%; the viability at 28.5 h, 5 µM came to 96.9%; the viability at 28.5 h, 10 µM was 106%. Besides, in data set [3], the activity at 1 µM worked out at 113%, the activity at 5 µM turned out to be 4.18% and the activity at 10 µM came to 1.3%.

As for `CCCCc1ccc(Nc2csc(N)n2)cc1` [CBK020594], in data set [1], the activity at 1 µM was found to be 67.9%, the activity at 5 µM stood at 10.8% and the activity at 10 µM came to 6.72%. For the same molecule, in data set [2], the viability at 28.5 h, 1 µM came out at 89.3%; the viability at 28.5 h, 5 µM was 84.9%; the viability at 28.5 h, 10 µM came out at 76.9%. In data set [3], the activity at 1 µM came out at 58.1%, the activity at 5 µM is 0.609% and the activity at 10 µM amounted to 0.496%.

On to `O=C(NCc1cccnc1)/C(=C/c1ccc(-c2cccc(Cl)c2)o1)S(=O)(=O)c1ccccc1` [CBK264508], for which, in data set [1], the activity at 1 µM amounted to 101%, the activity at 5 µM was 45% and the activity at 10 µM was found to be 8.14%. Further, in data set [2], the viability at 28.5 h, 1 µM came out at 107%; the viability at 28.5 h, 5 µM was 100%; the viability at 28.5 h, 10 µM came out at 97.8%. Besides, in data set [3], the activity at 1 µM came to 78.5%, the activity at 5 µM worked out at 44% and the activity at 10 µM turned out to be 10.3%.

With `CC(C)(C)c1cc(C(=O)Nc2ccncc2)n(Cc2ccc(Cl)cc2Cl)n1` [CBK107284], in data set [1], the activity at 1 µM came out at 116%, the activity at 5 µM was determined as 74.6% and the activity at 10 µM turned out to be 24.2%. In data set [2], the viability at 28.5 h, 1 µM turned out to be 94.9%; the viability at 28.5 h, 5 µM is 94%; the viability at 28.5 h, 10 µM came out at 97.3%. Also, in data set [3], the activity at 1 µM came out at 117%, the activity at 5 µM was determined as 57.8% and the activity at 10 µM was found to be 39.7%.

For `CC(=O)NC[C@H]1CN(c2ccc3c(c2)CCN(C(=O)Cc2ccccc2)CC3)C(=O)O1` [CBK018499], in data set [1], the activity at 1 µM is 37.5%, the activity at 5 µM was determined as 2.41% and the activity at 10 µM worked out at 5.46%. Moreover, in data set [2], the viability at 28.5 h, 1 µM stood at 92.9%; the viability at 28.5 h, 5 µM turned out to be 95.9%; the viability at 28.5 h, 10 µM was 92.1%. Further, in data set [3], the activity at 1 µM is 38%, the activity at 5 µM is 0.495% and the activity at 10 µM stood at 0.215%.

For the molecule `O=C1Oc2nc3ccccc3cc2CN1C1CC1` [CBK282870], in data set [1], the activity at 1 µM stood at 0.777%, the activity at 5 µM was 1.12% and the activity at 10 µM was 3.61%. Further, in data set [2], the viability at 28.5 h, 1 µM is 112%; the viability at 28.5 h, 5 µM was found to be 112%; the viability at 28.5 h, 10 µM stood at 98.4%. In data set [3], the activity at 1 µM came out at 0.264%, the activity at 5 µM worked out at 0.496% and the activity at 10 µM came out at 0.404%.

Regarding `CC(=O)NC[C@H]1CN(c2ccc(C#N)c(C)c2)C(=O)O1` [CBK010393], in data set [1], the activity at 1 µM was 120%, the activity at 5 µM is 98% and the activity at 10 µM worked out at 55.2%. Further, in data set [2], the viability at 28.5 h, 1 µM is 89.7%; the viability at 28.5 h, 5 µM was determined as 90.3%; the viability at 28.5 h, 10 µM is 89.8%. In data set [3], the activity at 1 µM was 102%, the activity at 5 µM came out at 94.2% and the activity at 10 µM came out at 42.5%.
